US20230137932A1, “CYANO-PYRIMIDINE INHIBITORS OF EGFR/HER2” (Dana-Farber Cancer Institute, Inc., priority 2020, published 2023)
Like-named read-outs stand apart in the source and are kept apart here.

Tests used:
[1] = target: T1, EGFR SVD (Homo sapiens, UniProt P00533, INS770SVD); assay: Ba/F3 cell viability (MTS), EGFR SVD; type: cell-based; details: Ba/F3 cells, 72 hours
T1 construct: expressed in transfected cells; host or cells: Ba/F3 cells
Experimental: (§1) The IC50 values of the compounds provided herein were measured against kinases in Ba/F3 cells.
(§2) For assays with Ba/F3 cells, 3000 cells were seeded for per well in 96-well plates and were exposed to indicated compounds with a concentration of 3.3 to 10 μM for 72 hours.

[2] = target: T2, EGFR ASV (Homo sapiens, UniProt P00533, INS769ASV); assay: Ba/F3 cell viability (MTS), EGFR ASV; type: cell-based; details: Ba/F3 cells, 72 hours
T2 construct: expressed in transfected cells; host or cells: Ba/F3 cells
T2 sequence (P00533 with tags, fused parts or gaps INS769ASV): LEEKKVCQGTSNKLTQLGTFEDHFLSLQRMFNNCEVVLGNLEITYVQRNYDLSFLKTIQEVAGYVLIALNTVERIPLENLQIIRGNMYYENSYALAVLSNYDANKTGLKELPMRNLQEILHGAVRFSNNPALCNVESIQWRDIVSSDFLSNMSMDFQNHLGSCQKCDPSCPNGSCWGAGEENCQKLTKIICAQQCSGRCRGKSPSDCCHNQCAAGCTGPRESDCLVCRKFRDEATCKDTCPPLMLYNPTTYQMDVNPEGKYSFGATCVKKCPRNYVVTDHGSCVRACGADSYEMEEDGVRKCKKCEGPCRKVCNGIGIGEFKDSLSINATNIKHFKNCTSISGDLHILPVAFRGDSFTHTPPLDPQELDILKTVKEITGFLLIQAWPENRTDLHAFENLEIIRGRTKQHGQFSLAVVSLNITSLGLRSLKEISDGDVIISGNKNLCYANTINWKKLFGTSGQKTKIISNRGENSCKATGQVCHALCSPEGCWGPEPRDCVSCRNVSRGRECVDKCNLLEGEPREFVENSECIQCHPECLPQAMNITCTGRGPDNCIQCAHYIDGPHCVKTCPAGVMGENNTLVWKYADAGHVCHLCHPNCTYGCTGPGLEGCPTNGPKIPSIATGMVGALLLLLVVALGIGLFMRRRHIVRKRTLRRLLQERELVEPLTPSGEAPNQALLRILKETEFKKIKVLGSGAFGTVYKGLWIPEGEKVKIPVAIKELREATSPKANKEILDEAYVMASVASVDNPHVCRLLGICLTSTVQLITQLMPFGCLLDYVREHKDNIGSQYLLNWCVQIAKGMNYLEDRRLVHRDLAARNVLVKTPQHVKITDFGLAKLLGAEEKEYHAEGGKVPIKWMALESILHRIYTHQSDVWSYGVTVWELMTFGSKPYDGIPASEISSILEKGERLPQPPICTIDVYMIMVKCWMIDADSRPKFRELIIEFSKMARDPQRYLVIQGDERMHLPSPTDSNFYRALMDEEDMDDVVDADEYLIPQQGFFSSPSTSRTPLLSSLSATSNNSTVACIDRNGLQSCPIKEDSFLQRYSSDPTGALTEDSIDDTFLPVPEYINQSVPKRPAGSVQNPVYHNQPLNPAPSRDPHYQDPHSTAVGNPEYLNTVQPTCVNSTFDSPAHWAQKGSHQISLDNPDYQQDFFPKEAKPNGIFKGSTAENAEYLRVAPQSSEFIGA
Experimental: as §1, §2

[3] = system: Ba/F3 parental; assay: Ba/F3 cell viability (MTS), parental cells; type: cell-based, murine; details: Mus musculus, BaF3, Table 3, 72 hours
Experimental: as §1, §2

[4] = target: H (Homo sapiens, UniProt P00533, cells depend on it, form not given); assay: Ba/F3 cell viability (MTS), H; type: cell-based; details: Table 5
Sequence of H (P00533 with tags, fused parts or gaps DUP773-773): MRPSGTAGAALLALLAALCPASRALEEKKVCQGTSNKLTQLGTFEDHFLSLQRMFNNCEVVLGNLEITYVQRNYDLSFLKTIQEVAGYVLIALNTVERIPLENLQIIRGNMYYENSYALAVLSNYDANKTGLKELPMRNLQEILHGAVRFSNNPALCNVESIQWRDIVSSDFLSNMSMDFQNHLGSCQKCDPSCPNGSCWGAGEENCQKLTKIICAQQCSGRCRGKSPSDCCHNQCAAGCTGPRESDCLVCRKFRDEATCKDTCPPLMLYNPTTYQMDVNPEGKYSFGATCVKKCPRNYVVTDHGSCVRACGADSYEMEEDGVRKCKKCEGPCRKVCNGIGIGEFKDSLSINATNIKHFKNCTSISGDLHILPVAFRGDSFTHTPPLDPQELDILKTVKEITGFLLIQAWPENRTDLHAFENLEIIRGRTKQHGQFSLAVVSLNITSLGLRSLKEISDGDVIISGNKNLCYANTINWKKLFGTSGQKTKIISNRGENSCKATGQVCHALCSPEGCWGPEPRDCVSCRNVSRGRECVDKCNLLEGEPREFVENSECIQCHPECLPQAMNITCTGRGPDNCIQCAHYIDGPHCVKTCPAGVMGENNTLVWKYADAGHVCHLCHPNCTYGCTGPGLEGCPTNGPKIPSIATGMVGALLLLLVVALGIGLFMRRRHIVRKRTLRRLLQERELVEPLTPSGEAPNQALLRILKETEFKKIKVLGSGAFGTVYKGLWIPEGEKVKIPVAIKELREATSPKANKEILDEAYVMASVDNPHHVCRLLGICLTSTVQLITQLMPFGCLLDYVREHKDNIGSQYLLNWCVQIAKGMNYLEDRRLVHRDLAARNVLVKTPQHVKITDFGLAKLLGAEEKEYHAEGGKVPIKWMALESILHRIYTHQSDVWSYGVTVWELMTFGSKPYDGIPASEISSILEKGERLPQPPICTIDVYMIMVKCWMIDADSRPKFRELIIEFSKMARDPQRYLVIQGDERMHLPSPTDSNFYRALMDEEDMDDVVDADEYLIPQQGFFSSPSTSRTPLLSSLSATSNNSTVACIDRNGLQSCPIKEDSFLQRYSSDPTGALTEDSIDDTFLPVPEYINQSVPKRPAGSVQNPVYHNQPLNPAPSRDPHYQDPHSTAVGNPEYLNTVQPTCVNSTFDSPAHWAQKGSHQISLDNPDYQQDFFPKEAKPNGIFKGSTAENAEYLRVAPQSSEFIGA

[5] = target: VC (Homo sapiens, UniProt P04626, DELINS776-776VC, cells depend on it); assay: Ba/F3 cell viability (MTS), VC; type: cell-based; details: Table 5
Sequence of VC (P04626 with tags, fused parts or gaps DELINS776-776VC): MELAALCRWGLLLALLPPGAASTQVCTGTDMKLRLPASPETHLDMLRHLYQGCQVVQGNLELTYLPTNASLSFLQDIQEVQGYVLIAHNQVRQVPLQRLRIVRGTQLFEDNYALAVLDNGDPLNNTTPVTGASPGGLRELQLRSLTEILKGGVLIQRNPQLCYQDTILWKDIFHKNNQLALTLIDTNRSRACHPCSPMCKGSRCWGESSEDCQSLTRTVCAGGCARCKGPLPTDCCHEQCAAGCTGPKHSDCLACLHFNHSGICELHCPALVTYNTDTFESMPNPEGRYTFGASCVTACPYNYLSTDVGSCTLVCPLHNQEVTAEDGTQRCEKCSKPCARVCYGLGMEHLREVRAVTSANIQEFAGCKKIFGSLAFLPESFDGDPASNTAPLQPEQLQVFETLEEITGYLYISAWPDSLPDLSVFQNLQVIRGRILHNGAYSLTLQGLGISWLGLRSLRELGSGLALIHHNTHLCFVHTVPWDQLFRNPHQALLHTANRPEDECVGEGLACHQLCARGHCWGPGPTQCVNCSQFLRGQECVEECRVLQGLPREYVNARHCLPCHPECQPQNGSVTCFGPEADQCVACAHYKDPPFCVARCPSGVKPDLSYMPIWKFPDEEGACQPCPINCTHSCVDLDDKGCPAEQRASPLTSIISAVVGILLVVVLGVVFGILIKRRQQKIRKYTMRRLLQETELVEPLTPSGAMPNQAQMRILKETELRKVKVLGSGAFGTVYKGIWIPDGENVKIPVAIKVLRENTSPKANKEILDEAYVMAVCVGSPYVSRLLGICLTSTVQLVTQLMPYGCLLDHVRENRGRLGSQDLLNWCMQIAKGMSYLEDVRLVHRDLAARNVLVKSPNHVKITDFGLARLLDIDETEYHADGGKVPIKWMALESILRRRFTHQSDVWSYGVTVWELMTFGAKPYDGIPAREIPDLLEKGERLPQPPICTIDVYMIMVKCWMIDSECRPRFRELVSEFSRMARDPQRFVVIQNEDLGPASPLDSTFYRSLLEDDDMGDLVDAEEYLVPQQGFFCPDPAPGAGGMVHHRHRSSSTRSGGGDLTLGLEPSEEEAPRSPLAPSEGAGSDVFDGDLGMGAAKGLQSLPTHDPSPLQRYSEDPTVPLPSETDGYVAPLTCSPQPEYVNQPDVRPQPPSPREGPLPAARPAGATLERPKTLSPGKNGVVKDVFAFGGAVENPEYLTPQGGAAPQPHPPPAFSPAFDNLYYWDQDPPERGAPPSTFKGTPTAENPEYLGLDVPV
Experimental: as §1, §2

[6] = target: WLV (Homo sapiens, UniProt P04626, DELINS774-774WLV, cells depend on it); assay: Ba/F3 cell viability (MTS), WLV; type: cell-based; details: Table 5
Experimental: as §1, §2

[7] = target: exon19 (Homo sapiens, UniProt P00533, cells depend on it, form not given); assay: Ba/F3 cell viability (MTS), exon19; type: cell-based; details: Table 5

T1 sequence (P00533 with tags, fused parts or gaps INS770SVD): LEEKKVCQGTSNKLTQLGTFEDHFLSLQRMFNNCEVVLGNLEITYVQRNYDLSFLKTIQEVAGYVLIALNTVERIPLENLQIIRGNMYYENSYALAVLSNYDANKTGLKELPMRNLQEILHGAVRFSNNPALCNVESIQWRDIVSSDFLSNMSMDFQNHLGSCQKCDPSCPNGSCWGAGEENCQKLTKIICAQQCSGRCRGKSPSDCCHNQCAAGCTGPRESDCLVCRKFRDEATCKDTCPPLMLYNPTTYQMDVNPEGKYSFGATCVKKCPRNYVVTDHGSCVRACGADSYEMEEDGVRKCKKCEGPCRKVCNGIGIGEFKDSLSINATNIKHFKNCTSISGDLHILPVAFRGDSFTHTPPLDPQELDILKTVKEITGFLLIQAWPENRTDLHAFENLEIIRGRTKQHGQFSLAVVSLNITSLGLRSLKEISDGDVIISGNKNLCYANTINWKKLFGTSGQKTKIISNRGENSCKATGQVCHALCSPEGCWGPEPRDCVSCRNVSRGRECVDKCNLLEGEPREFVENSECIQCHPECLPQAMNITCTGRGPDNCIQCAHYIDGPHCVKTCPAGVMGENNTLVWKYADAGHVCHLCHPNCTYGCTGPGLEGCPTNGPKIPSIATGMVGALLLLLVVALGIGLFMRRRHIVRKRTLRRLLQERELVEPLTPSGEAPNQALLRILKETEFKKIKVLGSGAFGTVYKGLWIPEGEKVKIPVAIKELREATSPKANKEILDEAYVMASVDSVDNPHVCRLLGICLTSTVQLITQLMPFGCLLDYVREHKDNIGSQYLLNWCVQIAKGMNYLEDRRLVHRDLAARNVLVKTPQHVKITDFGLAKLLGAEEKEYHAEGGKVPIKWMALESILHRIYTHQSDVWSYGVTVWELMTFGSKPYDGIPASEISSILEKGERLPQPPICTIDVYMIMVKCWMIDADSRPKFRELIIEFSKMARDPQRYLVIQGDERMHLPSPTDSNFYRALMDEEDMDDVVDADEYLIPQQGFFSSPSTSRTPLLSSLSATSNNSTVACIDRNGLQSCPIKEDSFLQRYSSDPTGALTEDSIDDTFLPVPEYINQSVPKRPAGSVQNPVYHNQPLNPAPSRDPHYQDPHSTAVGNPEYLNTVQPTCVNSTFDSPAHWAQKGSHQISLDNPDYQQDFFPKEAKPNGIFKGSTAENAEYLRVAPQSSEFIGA

Row | SMILES | IC50 [3] [nM] | also measured
1 | C=CC(=O)Nc1cc(Nc2ncc(C#N)c(NC34CC(C3)C4)n2)c(OC)cc1N(C)CCN(C)C [Compound 013, N-(5-((4-(bicyclo[1.1.1]pentan-1-ylamino)-5-cyanopyrimidin-2-yl)amino)-2-((2-(dimethylamino)ethyl)(methyl)amino)-4-methoxyphenyl)acrylamide] | 4580 | IC50 ([1]; Table 2, read-out: Ba/F3 IC50 SVD): 6.1 nM; IC50 ([1]; Table 4, read-out: EGFR Ba/F3 SVD): 44.7 nM; IC50 ([2]; Table 2, read-out: Ba/F3 IC50 ASV): 5.11 nM; IC50 ([2]; Table 4, read-out: EGFR Ba/F3 ASV): 19.3 nM
2 | C=CC(=O)Nc1cc(Nc2ncc(C#N)c(Nc3cccc(C)c3)n2)c(OC)cc1N(C)CCN(C)C [Compound 014, N-(5-((5-cyano-4-(m-tolylamino)pyrimidin-2-yl)amino)-2-((2-(dimethyl-amino)ethyl)(methyl)amino)-4-methoxyphenyl)acrylamide] | 7380 | –
3 | C=CC(=O)Nc1cc(Nc2ncc(C#N)c(NC34CC(C(F)F)(C3)C4)n2)c(OC)cc1N(C)CCN(C)C [Compound 015, N-(5-(5-cyano-4-(3-(difluoromethyl)bicycle[1.1.1]pentan-1-ylamino)-pyrimidin-2-ylamino)-2-((2-(dimethylamino)ethyl)(methyl)amino)-4-methoxyphenyl)-acrylamide] | 6260 | –
4 | C=CC(=O)Nc1cc(Nc2ncc(C#N)c(NC3C(C)C4CCC3C4(C)C)n2)c(OC)cc1N(C)CCN(C)C (stereo not shown) [Compound 016, N-(5-((5-cyano-4-((3,7,7-trimethylbicyclo[2.2.1]heptan-2-yl)amino)-pyrimidin-2-yl)amino)-2-((2-(dimethylamino)ethyl)(methyl)amino)-4-methoxyphenyl)-acrylamide] | 4340 | –
5 | C=CC(=O)Nc1cc(Nc2nccc(NC34CC(C3)C4)n2)c(OC)cc1N(C)CCN(C)C [Compound 017, N-(5-((4-(bicyclo[1.1.1]pentan-1-ylamino)pyrimidin-2-yl)amino)-2-((2-(dimethylamino)ethyl)(methyl)amino)-4-methoxyphenyl)acrylamide] | 2300 | –
6 | C=CC(=O)Nc1cc(Nc2ncc(OC)c(NC34CC(C3)C4)n2)c(OC)cc1N(C)CCN(C)C [Compound 018, N-(5-((4-(bicyclo[1.1.1]pentan-1-ylamino)-5-methoxypyrimidin-2-yl)amino)-2-((2-(dimethylamino)ethyl)(methyl)amino)-4-methoxyphenyl)acrylamide] | 9220 | –
7 | C=CC(=O)Nc1cc(Nc2ncc(C3CC3)c(NC34CC(C3)C4)n2)c(OC)cc1N(C)CCN(C)C [Compound 019, N-(5-((4-(bicyclo[1.1.1]pentan-1-ylamino)-5-cyclopropylpyrimidin-2-yl)amino)-2-((2-(dimethylamino)ethyl)(methyl)amino)-4-methoxyphenyl)acrylamide] | 4250 | –
8 | C=CC(=O)Nc1cc(Nc2ncc(C#N)c(NC3CCC3)n2)c(OC)cc1N(C)CCN(C)C [Compound 020] | 5930 | –
9 | C=CC(=O)Nc1cc(Nc2ncc(C#N)c(N3CCC3)n2)c(OC)cc1N(C)CCN(C)C [Compound 021, N-(5-(4-(azetidin-1-yl)-5-cyanopyrimidin-2-ylamino)-2-((2-(dimethyl-amino)ethyl)(methyl)amino)-4-methoxyphenyl)acrylamide] | 6040 | –
10 | C=CC(=O)Nc1cc(Nc2ncc(C#N)c(Nc3ccc(Oc4ccn5ccnc5c4)c(C)c3)n2)c(OC)cc1N(C)CCN(C)C [Compound 022] | – | GI50 [4]: 28.5 nM; GI50 [5]: 9.56 nM; GI50 [6]: 61.3 nM; GI50 [7]: 0.948 nM
11 | C=CC(=O)Nc1cc(Nc2nc(Nc3ccc(Oc4ccn5ccnc5c4)c(C)c3)ncc2C#N)c(OC)cc1N(C)CCN(C)C [Compound 027] | – | GI50 [4]: 444 nM; GI50 [5]: 317 nM; GI50 [6]: 461 nM; GI50 [7]: 44.7 nM
12 | CCC(=O)Nc1cc(Nc2ncc(C#N)c(NC34CC(C3)C4)n2)c(OC)cc1N(C)CCN(C)C [Compound 028, N-(5-((4-(bicyclo[1.1.1]pentan-1-ylamino)-5-cyanopyrimidin-2-yl)amino)-2-((2-(dimethylamino)ethyl)(methyl)amino)-4-methoxyphenyl)propionamide] | 10500 | –
13 | C=CC(=O)Nc1cc(Nc2ncc(C#N)c(Nc3ccc(Oc4ccn5ccnc5c4)c(C)c3)n2)c(OC)cc1N(C)C [Compound 029] | 8720 | –
14 | C=CC(=O)Nc1cc(Nc2ncc(C#N)c(Nc3ccc(Oc4ccn5ccnc5c4)c(C)c3)n2)c(OC)cc1N1CC(N(C)C)C1 [Compound 030] | 9940 | –
15 | C=CC(=O)Nc1cc(Nc2ncc(C#N)c(NC34CC(CN(C)C)(C3)C4)n2)c(OC)cc1N1CCOCC1 [Compound 031] | 8050 | –
